# Reference: patent US20240376119A1, “SPIRO COMPOUND AND USE THEREOF” (CSPC Zhongqi Pharmaceutical Technology (Shijiazhuang) Co., …, priority 2021, published 2024)
# Experiments:
# [1] = tested on: human acute myeloid leukemia MV-4-11 cells; test: In vitro inhibitory effect on the proliferation of MV-4-11 cells (MTT, 72 h); format: cell-based; settings: MV4-11, 72 hours exposure
# Method: The human acute myeloid leukemia MV-4-11 cells used in the assay were purchased from Shanghai Institutes for Biological Sciences, Chinese Academy of Sciences. The complete culture medium required for cell culture was IMDM (GIBCO Company), which was supplemented with 10% fetal bovine serum (GIBCO Company). Cells were cultured in a 37° C., 5% CO2 incubator. The reagents used in the assay included dimethyl sulfoxide (purchased from Tianjin Kemiou Chemical Reagent Co., Ltd.), and MTT (Shanghai Topbiochem Co., Ltd., CAS. NO. 298-93-1). The test substance was sealed and stored at 4° C.
# Dimethyl sulfoxide was used as the solvent to fully dissolve the test substance and prepare a stock solution with a concentration of 5×10^−2 mol/L. The stock solution was stored at −20° C. A complete culture medium was used as the diluent, and the test substance was diluted to different concentrations in a gradient for later use. 100 µL/well (2×10^4 cells/well) of a suspension of MV-4-11 cells in the complete culture medium was added to a 96-well culture plate. 100 μL/well of the corresponding test substances at different concentrations were added respectively. 8 concentrations were set for each test substance, and 3 duplicate wells were set for each concentration. The plate was cultured in a 37° C., 5% CO2 incubator. 20 μL/well of MTT was added after 72 hours of exposure to the test substances. The plate was cultured for 4 hours in a 37° C., 5% CO2 incubator. The supernatant was discarded, and 150 μL/well of dimethyl sulfoxide was added. The plate contents were oscillated and mixed evenly. The microplate reader was used to detect the OD value at a wavelength of 550 nm. The well only containing the cell suspension without test substance was a control well, and the well only containing the complete culture medium was a blank well. The inhibition rate of the cell growth was calculated with the following formula: • Inhibition rate=(ODcontrol well-ODtest well)/(ODcontrol well-ODblank well)*100%. According to the inhibition rates at each concentration, SPSS software was used to calculate the half inhibitory concentration IC50 value.
# [2] = tested on: human lung adenocarcinoma NCI-H441 cells; test: In vitro inhibitory effect on the proliferation of NCI-H441 cells (3D CellTiter Glo, 5 days); format: cell-based; settings: 120 h, 3D cell viability
# Method: The human lung adenocarcinoma cell NCI-H441 used in the assay was purchased from ATCC. The complete culture medium required for cell culture was RPMI 1640 Medium (GIBCO Company), which was supplemented with 10% fetal bovine serum (GIBCO Company). Cells were cultured in a 37° C., 5% CO2 incubator. The reagents used in the assay included dimethyl sulfoxide (purchased from Sigma), a 3D Cell Viability assay kit (purchased from Promega), and the control substance TW-45 used in the assay was obtained homemade. The test substance was sealed and stored at 4° C.
# Dimethyl sulfoxide was used as the solvent to fully dissolve the test substance and prepare a stock solution with a concentration of 1×10^−2 mol/L. The stock solution was stored at −20° C. A complete culture medium was used as the diluent, and the test substance was diluted to different concentrations in gradient for later use (the final test concentration was 10000, 3333, 1111, 370, 123, 41, 13.7, 4.5, 1.5, and 0.5 nM). Cells were cultured in a 37° C., 5% CO2 incubator for 5 days. Detection was made on the fifth day. 30 μL of reagent (Celltiter Glo Assay Kit-3D) was added to each well and the plate was shaken on a plate oscillator (protected from light) for 30 minutes. The plate was incubated at room temperature (protected from light) for 120 minutes. Chemiluminescence values were recorded with a Multiplate reader. […]
# [3] = Mouse pharmacokinetic assay (intragastric administration, plasma HPLC-MS/MS); format: in vivo; settings: ICR mice
# Method: ICR mice were intragastrically administered with the compound at 10 mg/kg or 20 mg/kg. At different time points (0.25 h, 0.5 h, 1 h, 2 h, 4 h, 8 h, 24 h) after administration, the mice blood was collected from the orbit. The collected whole blood was anticoagulated with heparin sodium and centrifuged at 3000 g to obtain mouse plasma samples. Methanol was added to precipitate proteins. The drug concentration in the mouse plasma after administration was determined by the HPLC-MS/MS method. A drug concentration-time curve was plotted and the pharmacokinetic parameters were calculated. The pharmacokinetic behavior in mice after the compound administration was described by means of non-compartment model statistical moment parameters.
# hERG channel = hERG channel (Homo sapiens (Human), UniProt Q12809); test: hERG assay, manual whole-cell patch clamp in CHO-K1 cell line stably expressing the hERG channel; format: cell-based
# Method: This assay included the following aspects: • A manual patch clamp technique was used to record the hERG current in the CHO-K1 cell line stably expressing the hERG channel; • The inhibition rate at each concentration was calculated based on the hERG tail current; • Each compound was tested at 5 concentrations to calculate the IC50 value; • Three cells were tested for each concentration; • One positive control drug was set.
# HERG currents were recorded using the whole-cell patch-clamp technique. The cell suspension was added to the cell tank and placed on the upright microscope stage. After the cell adherence, the cells were perfused with extracellular fluid at a flow rate of 1-2 mL/min. The glass microelectrode was drawn in two steps by a micropipette puller, and its resistance value in water was 2-5 MΩ. After establishing the whole-cell recording, the clamp potential was maintained at −80 mV. The hERG tail current was elicited by applying a depolarizing voltage to +60 mV upon the voltage stimulation and then repolarizing to −50 mV. All recordings were made after the current stabilization. Extracellular perfusion administration started from a low concentration, and each concentration lasted for 5-10 minutes until the current was stable, and then proceeded to the next concentration.
# The half inhibitory concentration (ICSO) of the test compound was derived from the best fit of the Logistic equation.
# [4] = Mouse tolerance assay (once daily for 7 consecutive days); format: in vivo; settings: mouse, in vivo; for Number of animals (number of deaths/total number): 7 days
# Method: • Assay animals: ICR mice, female, 5 weeks old • Solvent: 2% DMSO+98% (0.5% MC), treated by sufficient vortex and sonicated to obtain a uniform suspension • Assay method: Female ICR mice were divided into 4 groups according to weight balance, with 5 mice in each group. The administration doses were 50 mg/kg and 200 mg/kg respectively. The compound was administrated once daily for 7 consecutive days.
# [5] = mouse, po, intragastric, 10 mg/kg, plasma
# Chain of hERG channel (Q12809 whole entry): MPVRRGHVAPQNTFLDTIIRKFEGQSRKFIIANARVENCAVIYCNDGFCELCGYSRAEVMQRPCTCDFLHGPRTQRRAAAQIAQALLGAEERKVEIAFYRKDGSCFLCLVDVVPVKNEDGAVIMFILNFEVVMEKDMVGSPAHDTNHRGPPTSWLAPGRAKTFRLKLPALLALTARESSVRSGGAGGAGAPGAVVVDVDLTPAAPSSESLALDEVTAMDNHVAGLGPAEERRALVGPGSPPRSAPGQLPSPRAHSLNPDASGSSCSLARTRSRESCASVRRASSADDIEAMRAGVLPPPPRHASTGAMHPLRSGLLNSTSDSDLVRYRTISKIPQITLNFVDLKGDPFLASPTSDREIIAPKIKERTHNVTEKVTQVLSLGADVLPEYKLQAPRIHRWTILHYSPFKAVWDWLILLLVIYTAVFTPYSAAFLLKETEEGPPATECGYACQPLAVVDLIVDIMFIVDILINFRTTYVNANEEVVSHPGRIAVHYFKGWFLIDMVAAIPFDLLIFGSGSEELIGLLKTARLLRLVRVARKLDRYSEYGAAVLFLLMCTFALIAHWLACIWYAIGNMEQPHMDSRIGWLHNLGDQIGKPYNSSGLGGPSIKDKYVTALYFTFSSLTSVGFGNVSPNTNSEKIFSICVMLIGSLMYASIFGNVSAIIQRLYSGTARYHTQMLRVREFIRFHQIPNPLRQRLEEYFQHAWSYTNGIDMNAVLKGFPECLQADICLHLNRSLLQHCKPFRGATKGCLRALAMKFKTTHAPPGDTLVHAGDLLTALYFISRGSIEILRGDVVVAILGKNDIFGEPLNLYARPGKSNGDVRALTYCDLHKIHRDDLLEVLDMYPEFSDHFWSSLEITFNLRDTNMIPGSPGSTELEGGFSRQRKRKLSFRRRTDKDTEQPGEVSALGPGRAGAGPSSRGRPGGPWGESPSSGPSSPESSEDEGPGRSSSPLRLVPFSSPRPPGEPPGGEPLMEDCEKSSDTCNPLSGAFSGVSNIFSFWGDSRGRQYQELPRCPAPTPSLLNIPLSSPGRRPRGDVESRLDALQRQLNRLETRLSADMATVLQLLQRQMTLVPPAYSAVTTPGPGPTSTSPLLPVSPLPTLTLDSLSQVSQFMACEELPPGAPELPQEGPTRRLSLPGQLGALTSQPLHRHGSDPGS
smiles,measurement,setting,value
"[2H][C@@]1(N)c2ccccc2OC12CCN(c1nc(N)c(Sc3ccnc(N)c3Cl)nc1C(C)=O)CC2 [Compound 56, (R)-1-(5-amino-6-((2-amino-3-chloropyridine-4-yl)sulfanyl)-3-(3-amino-3-deuterium-spiro[benzofuran-2,4′-piperidine]-1′-yl)pyrazine-2-yl)ethanone]",IC50,[1],≤ 20 nM
same,IC50,[2],≤ 20 nM
same,exposure and absorption in mice (in words),[3]; intragastric administration,relatively high exposure in mice and both were well absorbed in vivo
same,Cmax,[3]; [5],3570 ng/mL
same,Tmax,[3]; [5],30 min
same,AUC(0-t),"[3]; mouse, po, intragastric, 10 mg/kg, plasma, read-out: AUC0-24 h",18300 ng·h/mL
same,IC50,"hERG channel; CHO-K1 stable cell line, hERG tail current, 5 concentrations",> 10000 nM
same,inhibitory effect on the hERG channel (in words),hERG channel; within the detection concentration range of the assay,no obvious inhibitory effect on the hERG channel
same,MTD at 7 days,"[4]; female, ICR",> 200 mg/kg
same,Number of animals (number of deaths/total number),"[4]; female, ICR, 50 mg/kg",0/5F
same,Number of animals (number of deaths/total number),"[4]; female, ICR, 200 mg/kg",0/5F
same,tolerance in mice compared with positive control compound TW-45,[4],significantly better
